Experimental data published in US20060069132A1, “Azolecarboxamide herbicides” (priority 2004, published 2006).

Columns and labels:
rice = test: Test C flooded paddy test; assay type: in vivo, Oryza sativa; details: for Plant response rating, Rice: 500 g ai/ha, visual rating after 12 to 14 days
In short: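 Injury scored visually against controls on a 0 (no effect) to 100 (complete control) scale, 12 to 14 days after treatment in greenhouse. Flooded paddy plants treated at 2-leaf stage; postemergence plants at 1- to 4-leaf stage, 2 to 18 cm tall.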

redroot pigweed = test: Test A pre-/postemergence herbicide test; assay type: in vivo, Amaranthus retroflexus
In short: (§1)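 Visual injury rating on a 0–100 scale (0 no effect, 100 complete control) versus untreated controls, about ten days after treatment in greenhouse. Pre: directed soil spray onto seeded sandy loam. Post: spray to runoff on plants 2–10 cm tall at one- to two-leaf stage.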

velvetleaf [1] = test: Test C pre-/postemergence herbicide test; assay type: in vivo, Abutilon theophrasti; details: for Velvetleaf plant response rating: 500 g ai/ha
In short: (§2)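 Pre- and postemergence application, solvent/surfactant formulation; post at 1- to 4-leaf stage (2–18 cm). Greenhouse 12–14 d. Visual rating vs controls, 0 = no effect, 100 = complete control.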

barnyardgrass [2] = test: Test A pre-/postemergence herbicide test; assay type: in vivo, Echinochloa crus-galli
In short: as §1

velvetleaf [3] = test: Test A pre-/postemergence herbicide test; assay type: in vivo, Abutilon theophrasti
In short: as §1

large crabgrass = test: Test C pre-/postemergence herbicide test; assay type: in vivo, Digitaria sanguinalis; details: for Crabgrass, Large plant response rating: 500 g ai/ha
In short: as §2

cocklebur = test: Test C pre-/postemergence herbicide test; assay type: in vivo, Xanthium strumarium; details: for Cocklebur plant response rating: 500 g ai/ha
In short: as §2

corn = test: Test C pre-/postemergence herbicide test; assay type: in vivo, Zea mays; details: for Corn plant response rating: 500 g ai/ha
In short: as §2

barnyardgrass [4] = test: Test C flooded paddy test; assay type: in vivo, Echinochloa crus-galli; details: for Plant response rating, Barnyardgrass: 500 g ai/ha, visual rating after 12 to 14 days
In short: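 After a postemergence application at 1 to 4 leaves (plants 2–18 cm high), or at 2 leaves for barnyardgrass in flooded paddy, plants stayed in the greenhouse for 12 to 14 days. Damage was then judged visually relative to control plants, with 100 indicating complete control.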

ducksalad = test: Test C flooded paddy test; assay type: in vivo, Heteranthera limosa; details: for Plant response rating, Ducksalad: 500 g ai/ha, visual rating after 12 to 14 days
yellow nutsedge = test: Test C pre-/postemergence herbicide test; assay type: in vivo, Cyperus esculentus; details: for Nutsedge, Yellow plant response rating: 500 g ai/ha
In short: as §2

common ragweed = test: Test C pre-/postemergence herbicide test; assay type: in vivo, Ambrosia elatior; set-up: key to Plant response rating, Ragweed: 0 = no effect, 100 = complete control; details: for Ragweed plant response rating: 500 g ai/ha
In short: as §2

[5] = 125 g ai/ha, scale 0 to 100 (0 no effect, 100 complete control)
[6] = 250 g ai/ha, scale of 0 to 100, 0 is no effect, 100 is complete control
[7] = scale 0 to 100 (0 no effect, 100 complete control)
[8] = Postemergence, 500 g ai/ha, 0 to 100 scale, 0 no effect, 100 complete control
[9] = Postemergence, 2000 g ai/ha, 0 to 100 scale, 0 no effect, 100 complete control
[10] = Preemergence, 2000 g ai/ha, visual rating, 0 to 100 scale (0 no effect, 100 complete control)
[11] = preemergence, 500 g ai/ha, visual injury, 0 to 100 scale (0 no effect, 100 complete control)
[12] = Postemergence, 250 g ai/ha, scale 0 to 100, 0 no effect, 100 complete control
[13] = postemergence, 125 g ai/ha, scale 0 to 100
[14] = postemergence, 62 g ai/ha, scale 0 to 100
[15] = 62 g ai/ha, scale 0 to 100 (0 no effect, 100 complete control)
[16] = 125 g ai/ha, scale of 0 to 100, 0 is no effect, 100 is complete control
[17] = Preemergence, 500 g ai/ha, visual rating, 0 to 100 scale (0 no effect, 100 complete control)

CCn1nc(C(C)(C)C)cc1C(=O)Nc1cccc(OC(F)(F)F)c1 [Compound 272]
Rice plant response rating (rice; 62 g ai/ha, scale 0 to 100): 0
Rice plant response rating (rice; [5]): 10
Rice plant response rating (rice; [6]): 15
Plant response rating, Rice (rice; [7]): 20
Pigweed plant response rating (redroot pigweed; [8]): 100
Plant response rating, Pigweed (redroot pigweed; [9]): 100
Pigweed plant response rating (redroot pigweed; [10]): 100
Pigweed plant response rating (redroot pigweed; [11]): 100
Velvetleaf plant response rating (velvetleaf [1]; Postemergence, scale 0 to 100): 100
Plant response rating, Velvetleaf (velvetleaf [1]; [12]): 100
Plant response rating, Velvetleaf (velvetleaf [1]; [13]): 95
Plant response rating, Velvetleaf (velvetleaf [1]; [14]): 85
Barnyardgrass plant response rating (barnyardgrass [2]; [8]): 55
Plant response rating, Barnyardgrass (barnyardgrass [2]; [9]): 90
Barnyardgrass plant response rating (barnyardgrass [2]; [10]): 100
Barnyardgrass plant response rating (barnyardgrass [2]; [11]): 70
Velvetleaf plant response rating (velvetleaf [3]; [8]): 100
Plant response rating, Velvetleaf (velvetleaf [3]; [9]): 100
Velvetleaf plant response rating (velvetleaf [3]; [10]): 60
Velvetleaf plant response rating (velvetleaf [3]; [11]): 15
Crabgrass, Large plant response rating (large crabgrass; Postemergence, scale 0 to 100): 95
Plant response rating, Crabgrass, Large (large crabgrass; [12]): 80
Plant response rating, Crabgrass, Large (large crabgrass; [13]): 80
Plant response rating, Crabgrass, Large (large crabgrass; [14]): 40
Cocklebur plant response rating (cocklebur; Postemergence, scale 0 to 100): 95
Plant response rating, Cocklebur (cocklebur; [12]): 60
Plant response rating, Cocklebur (cocklebur; [13]): 60
Plant response rating, Cocklebur (cocklebur; [14]): 15
Corn plant response rating (corn; Postemergence, scale 0 to 100): 20
Plant response rating, Corn (corn; [12]): 15
Plant response rating, Corn (corn; [13]): 15
Plant response rating, Corn (corn; [14]): 10
Barnyardgrass plant response rating (barnyardgrass [4]; [15]): 0
Barnyardgrass plant response rating (barnyardgrass [4]; [5]): 0
Barnyardgrass plant response rating (barnyardgrass [4]; [6]): 10
Plant response rating, Barnyardgrass (barnyardgrass [4]; [7]): 30
Ducksalad plant response rating (ducksalad; 62 g ai/ha, scale 0 to 100): 10
Ducksalad plant response rating (ducksalad; [5]): 20
Ducksalad plant response rating (ducksalad; [6]): 40
Plant response rating, Ducksalad (ducksalad; [7]): 85
Nutsedge, Yellow plant response rating (yellow nutsedge; Postemergence, scale 0 to 100): 0
Plant response rating, Nutsedge, Yellow (yellow nutsedge; [12]): 0
Plant response rating, Nutsedge, Yellow (yellow nutsedge; [13]): 0
Plant response rating, Nutsedge, Yellow (yellow nutsedge; [14]): 0
Ragweed plant response rating (common ragweed; Postemergence, scale 0 to 100): 95
Plant response rating, Ragweed (common ragweed; [12]): 80
Plant response rating, Ragweed (common ragweed; [13]): 65
Plant response rating, Ragweed (common ragweed; [14]): 60

CC(=NO)c1cccc(NC(=O)c2cc(C(C)(C)C)nn2CC(F)(F)F)c1 [Compound 112]
Rice plant response rating (rice; [15]): 0
Rice plant response rating (rice; [16]): 0
Rice plant response rating (rice; [6]): 10
Plant response rating, Rice (rice; [7]): 30
Pigweed plant response rating (redroot pigweed; [8]): 40
Plant response rating, Pigweed (redroot pigweed; [9]): 60
Pigweed plant response rating (redroot pigweed; [17]): 65
Pigweed plant response rating (redroot pigweed; [10]): 90
Velvetleaf plant response rating (velvetleaf [1]; Postemergence, scale 0 to 100): 90
Plant response rating, Velvetleaf (velvetleaf [1]; [12]): 80
Plant response rating, Velvetleaf (velvetleaf [1]; [13]): 0
Plant response rating, Velvetleaf (velvetleaf [1]; [14]): 0
Barnyardgrass plant response rating (barnyardgrass [2]; [8]): 35
Plant response rating, Barnyardgrass (barnyardgrass [2]; [9]): 45
Barnyardgrass plant response rating (barnyardgrass [2]; [17]): 25
Barnyardgrass plant response rating (barnyardgrass [2]; [10]): 50
Velvetleaf plant response rating (velvetleaf [3]; [8]): 25
Plant response rating, Velvetleaf (velvetleaf [3]; [9]): 35
Velvetleaf plant response rating (velvetleaf [3]; [17]): 25
Velvetleaf plant response rating (velvetleaf [3]; [10]): 50
Crabgrass, Large plant response rating (large crabgrass; Postemergence, scale 0 to 100): 30
Plant response rating, Crabgrass, Large (large crabgrass; [12]): 30
Plant response rating, Crabgrass, Large (large crabgrass; [13]): 10
Plant response rating, Crabgrass, Large (large crabgrass; [14]): 0
Cocklebur plant response rating (cocklebur; Postemergence, scale 0 to 100): 70
Plant response rating, Cocklebur (cocklebur; [12]): 60
Plant response rating, Cocklebur (cocklebur; [13]): 30
Plant response rating, Cocklebur (cocklebur; [14]): 0
Corn plant response rating (corn; Postemergence, scale 0 to 100): 30
Plant response rating, Corn (corn; [13]): 20
Plant response rating, Corn (corn; [14]): 10
Barnyardgrass plant response rating (barnyardgrass [4]; [15]): 0
Barnyardgrass plant response rating (barnyardgrass [4]; [16]): 0
Barnyardgrass plant response rating (barnyardgrass [4]; [6]): 10
Plant response rating, Barnyardgrass (barnyardgrass [4]; [7]): 30
Ducksalad plant response rating (ducksalad; [15]): 0
Ducksalad plant response rating (ducksalad; [16]): 0
Ducksalad plant response rating (ducksalad; [6]): 0
Plant response rating, Ducksalad (ducksalad; [7]): 100
Nutsedge, Yellow plant response rating (yellow nutsedge; Postemergence, scale 0 to 100): 20
Plant response rating, Nutsedge, Yellow (yellow nutsedge; [12]): 20
Plant response rating, Nutsedge, Yellow (yellow nutsedge; [13]): 0
Plant response rating, Nutsedge, Yellow (yellow nutsedge; [14]): 0
Ragweed plant response rating (common ragweed; Postemergence, scale 0 to 100): 70
Plant response rating, Ragweed (common ragweed; [12]): 70
Plant response rating, Ragweed (common ragweed; [13]): 0
Plant response rating, Ragweed (common ragweed; [14]): 0
